In US20230272345A1, “SELF-ASSEMBLED CELL SHEET CONSTRUCTS AND METHODS OF MAKING THEREOF” (Caro Meats Inc., priority 2020, published 2023):

Experiments:
C2C12 cells [1] = conditions: 100 nM in DM, Nowak et al. 2009; cited from earlier work
C2C12 cells [2] = test: Effect of Lat-B on cytoskeleton reorganization / morphology of C2C12 cells (brightfield microscopy); format: cell-based
Method: (§1) Difference in cytoskeleton reorganization of differentiated cells vs. undifferentiated ones was studied by treating cells with Latrunculin-B (Lat-B) (Abcam, ab144291). C2C12 cells grown in GM and the partially differentiated ones in DM were treated with 100 nM Lat-B in GM and DM, respectively, for 1 hr at D1 and microscopy was performed using inverted microscope in brightfield mode. Effect of cytoskeleton reorganization on detachment of the sheets was also studied by treating the cells with 50 and 100 nM of Lat-B in DM during the 24 hrs before delamination. Lat-B stock solution was prepared by dissolving 100 μg in 1 mL DMSO.

C2C12 cells [3] = test: Effect of Lat-B treatment during the 24 hrs before delamination on detachment / sheet formation; format: cell-based
Method: In order to start the delamination process DM was replaced with acidic medium (medium A) (DM with 0.1% V/V acetic acid, final pH of ˜6) and samples were incubated for 5-10 min at 37° C. At this point that sheets started to delaminate the process was accelerated by gentle shaking of the well plate. Process could be accelerated by applying shear force using gentle pipetting of medium to the edges of the wells. Immediately after delamination was completed, medium A was replaced with basic medium (medium B, final pH of ˜8) (DM with 0.1% V/V 0.1 M sodium hydroxide in deionized water) in order to prevent samples from forming clumps. After 5 min of treatment with medium B, samples were transferred to neutral medium (medium N, pH of 7.4) (DM without any pH adjustment). In case of stacks, the required number of sheets, either 2 layers of cell sheets (double-layer constructs) or 4 layers (quadruple-layer constructs), were stacked on top of each other by simply dragging them using a tweezer and placing them on each other. This process was also performed in abundant amounts of medium B and after stacking was done, most of the media was aspirated to let the sheets settle down because of their weight for 5 more minutes and then extra medium N was added (FIG. 1B). Images of sheets were taken 1 hr after delamination/stacking and 24 hrs later using a stereomicroscope (Infinity Optical Systems). Diameter of the sheets was used using ImageJ at these time points to study effect of number of layers on shrinkage pattern of the constructs.
as §1

## C/C1=C/C(=O)O[C@@H]2C[C@@H](CC[C@H](C)/C=C\CC1)O[C@@](O)([C@@H]1CSC(=O)N1)C2 [Lat-B, Latrunculin-B]
C2C12 cells [1]
  Fusion of C2C12 cells: would not fuse to each other
C2C12 cells [2]; 50 nM Lat-B in DM, 24 hr (D1 to D2)
  Morphology after 24 hr of treatment: slightly round
C2C12 cells [2]; 50 nM Lat-B in DM, first few hours (data not shown)
  Morphology during the first few hours: did not show significant changes in their morphology
C2C12 cells [2]; 100 nM Lat-B in DM, 1 hr at D1, partially differentiated C2C12
  Morphology of partially differentiated cells: changed very fast to round cells and eventually they formed clumps of cells
C2C12 cells [2]; 100 nM Lat-B in DM, 24 hrs (D1 to D2)
  Morphology after 24 hrs of treatment: regained their stretched morphology after 24 hrs of treatment but were still rounder compared to untreated cells
C2C12 cells [2]; 100 nM Lat-B in GM, 1 hr at D1, undifferentiated C2C12
  Morphology of undifferentiated cells: only became slightly round
C2C12 cells [3]; 50 nM Lat-B in DM for 24 hrs before delamination
  Delamination / sheet formation: started to delaminate, but the sheets were fragile and broke to smaller pieces
C2C12 cells [3]; 50 nM Lat-B in DM for 24 hrs before delamination, listed as Latrunculin-B
  Delamination / sheet formation: delaminated but were fragile
C2C12 cells [3]; 100 nM Lat-B in DM for 24 hrs before delamination
  Delamination / sheet formation: did not form sheets at all
C2C12 cells [3]; 100 nM Lat-B in DM for 24 hrs before delamination, listed as Latrunculin-B
  Delamination / sheet formation: did not form continuous sheets
